Among the data in paper PMC8286840, “Identifying SARS-CoV-2 antiviral compounds by screening for small molecule inhibitors of Nsp3 papain-like protease” (Biochemical Journal, 2021) are remaining activity values, retold here.

Where a name gives a salt, the structure may show the parent alone. Read-outs that look alike come from different tables or passages of the source. Where a SMILES comes first, the peptide text is derived from it. The star is where a group is joined. PhAc = O=C(Cc1ccccc1)*

The target of experiment [1] is T1, SARS-CoV-2 PLpro (nsp3 1564–1878) (Severe acute respiratory syndrome coronavirus 2, UniProt P0DTD1). The experiment in a line: biochemical. Set-up: FRET-quenched peptide (Pro3) cleavage by PLpro, 10 min pre-incubation, slope over 20 min, normalised to no-compound control. The conditions noted are these: read-out: % of control remaining.
Experiment [2] concerns the target T1, SARS-CoV-2 PLpro (nsp3 1564–1878). The experiment in a line: biochemical. The arrangement: FRET-quenched peptide (Pro3) cleavage by PLpro, 10 min pre-incubation, slope over 20 min, normalised to no-compound control. The conditions noted are these: read-out: % of control remaining. This is another data set of the same source.

Consider `CC1CS(=O)(=O)CCN1/N=C/c1ccc([N+](=O)[O-])o1` (stereo not shown) [Nifurtimox], for which the remaining activity at 1.25 µM in experiment [1] (Well no.=5382, low concentration screen) came out at 98.3%. The remaining activity at 3.75 µM in experiment [2] (Well no.=5382, high concentration screen) was found to be 99.2%.

As for `COC(=O)C1=C(C)NC(C)=C(C(=O)OCCCN2CCC(c3ccccc3)(c3ccccc3)CC2)[C@H]1c1cccc([N+](=O)[O-])c1` [Niguldipine], in experiment [1], the remaining activity at 1.25 µM stood at 105%. Moreover, the remaining activity at 3.75 µM in experiment [2] stood at 100%.

For `Cc1cn(-c2cc(NC(=O)c3ccc(C)c(Nc4nccc(-c5cccnc5)n4)c3)cc(C(F)(F)F)c2)cn1` [Nilotinib], the remaining activity at 1.25 µM in experiment [1] (Well no.=2793, low concentration screen) is 111%. Moreover, in experiment [2] (Well no.=2793, high concentration screen), the remaining activity at 3.75 µM worked out at 107%.

Take `CC1(C)NC(=O)N(c2ccc([N+](=O)[O-])c(C(F)(F)F)c2)C1=O` [Nilutamide]: in experiment [1] (Well no.=1147, low concentration screen), the remaining activity at 1.25 µM stood at 100%. Further, the remaining activity at 3.75 µM in experiment [2] (Well no.=1147, high concentration screen) came to 101%.

For the compound `CS(=O)(=O)Nc1ccc([N+](=O)[O-])cc1Oc1ccccc1` [Nimesulide], the remaining activity at 1.25 µM came to 93.4% in experiment [1] (Well no.=1043, low concentration screen) and 95.5% in experiment [1] (Well no.=1574, low concentration screen). Further, the remaining activity at 3.75 µM came to 96.1% in experiment [2] (Well no.=1043, high concentration screen) and 94.3% in experiment [2] (Well no.=1574, high concentration screen).

For `COCCOC(=O)C1=C(C)NC(C)=C(C(=O)OC(C)C)C1c1cccc([N+](=O)[O-])c1` (stereo not shown) [Nimodipine], the remaining activity at 1.25 µM in experiment [1] (Well no.=844, low concentration screen) came out at 100%; in experiment [1] (Well no.=1717, low concentration screen) it was 104%. The remaining activity at 3.75 µM in experiment [2] (Well no.=844, high concentration screen) came to 97.1%; in experiment [2] (Well no.=1717, high concentration screen), 101%.

With `Cc1ncc(CNC(=O)N(CCCl)N=O)c(N)n1` [Nimustine (hydrochloride)], the remaining activity at 1.25 µM in experiment [1] (Well no.=6836, low concentration screen) was 95.8%. Besides, in experiment [2] (Well no.=6836, high concentration screen), the remaining activity at 3.75 µM amounted to 95.5%.

As for `Cc1ncc(CNC(=O)N(CCCl)N=O)c(N)n1` [Nimustine hydrochloride], the remaining activity at 1.25 µM in experiment [1] (Well no.=861, low concentration screen) worked out at 96.9%. The remaining activity at 3.75 µM in experiment [2] (Well no.=861, high concentration screen) stood at 97.2%.

With `COC(=O)C1=C(C)NC(C)=C(C(=O)OCC(C)C)C1c1ccccc1[N+](=O)[O-]` (stereo not shown) [Nisoldipine], the remaining activity at 1.25 µM in experiment [1] (Well no.=1796, low concentration screen) came to 100%. Besides, the remaining activity at 3.75 µM in experiment [2] (Well no.=1796, high concentration screen) is 100%.

As for `CNCCC(Oc1ccccc1OC)c1ccccc1` (stereo not shown) [Nisoxetine hydrochloride], in experiment [1] (Well no.=892, low concentration screen), the remaining activity at 1.25 µM worked out at 100%. Also, the remaining activity at 3.75 µM in experiment [2] (Well no.=892, high concentration screen) was 99.8%.

As to `CNCCC(Oc1ccccc1OC)c1ccccc1` (stereo not shown) [Nisoxetine.HCl], the remaining activity at 1.25 µM in experiment [1] (Well no.=1789, low concentration screen) stood at 103%. In experiment [2] (Well no.=1789, high concentration screen), the remaining activity at 3.75 µM was 99.5%.

For the compound `CC(=O)Oc1ccccc1C(=O)Nc1ncc([N+](=O)[O-])s1` [Nitazoxanide], the remaining activity at 1.25 µM in experiment [1] (Well no.=5482, low concentration screen) stood at 101%. Besides, in experiment [2] (Well no.=5482, high concentration screen), the remaining activity at 3.75 µM worked out at 101%.

With `O=C1CCCC(=O)C1C(=O)c1ccc(C(F)(F)F)cc1[N+](=O)[O-]` [Nitisinone], the remaining activity at 1.25 µM in experiment [1] (Well no.=5887, low concentration screen) was found to be 103%. In addition, in experiment [2] (Well no.=5887, high concentration screen), the remaining activity at 3.75 µM amounted to 103%.

On to `CCOC(=O)C1=C(C)NC(C)=C(C(=O)OC)C1c1cccc([N+](=O)[O-])c1` (stereo not shown) [Nitrendipine], for which the remaining activity at 1.25 µM in experiment [1] (Well no.=796, low concentration screen) was determined as 92.2%; in experiment [1] (Well no.=1719, low concentration screen), 99.4%. Moreover, the remaining activity at 3.75 µM in experiment [2] (Well no.=796, high concentration screen) came out at 94.4%; in experiment [2] (Well no.=1719, high concentration screen) it was 103%.

Consider `CNC(=C[N+](=O)[O-])NCCSCc1csc(CN(C)C)n1` [Nizatidine], for which the remaining activity at 1.25 µM amounted to 101% in experiment [1] (Well no.=4628, low concentration screen) and 99.2% in experiment [1] (Well no.=7378, low concentration screen). Moreover, the remaining activity at 3.75 µM in experiment [2] (Well no.=4628, high concentration screen) amounted to 99.2%; in experiment [2] (Well no.=7378, high concentration screen), 98.9%.

With `COC(=O)Nc1nc2cc(C(=O)c3cccs3)ccc2[nH]1` [Nocodazole], the remaining activity at 1.25 µM amounted to 99.3% in experiment [1] (Well no.=824, low concentration screen) and 96.5% in experiment [1] (Well no.=6258, low concentration screen). In addition, the remaining activity at 3.75 µM in experiment [2] (Well no.=824, high concentration screen) worked out at 101%; in experiment [2] (Well no.=6258, high concentration screen) it was 94.1%.

Turning to `Cc1ccc2nc(N)[nH]c(=O)c2c1Sc1ccncc1` [Nolatrexed dihydrochloride], the remaining activity at 1.25 µM in experiment [1] (Well no.=6980, low concentration screen) stood at 103%. Also, the remaining activity at 3.75 µM in experiment [2] (Well no.=6980, high concentration screen) stood at 100%.

Take `CN1Cc2c(N)cccc2C(c2ccccc2)C1` (stereo not shown) [Nomifensine (maleate)]: the remaining activity at 1.25 µM in experiment [1] (Well no.=8395, low concentration screen) turned out to be 97.9%. In experiment [2] (Well no.=8395, high concentration screen), the remaining activity at 3.75 µM is 95.9%.

Turning to `CN1Cc2c(N)cccc2C(c2ccccc2)C1` (stereo not shown) [Nomifensine maleate], the remaining activity at 1.25 µM in experiment [1] (Well no.=1139, low concentration screen) stood at 94.1%. The remaining activity at 3.75 µM in experiment [2] (Well no.=1139, high concentration screen) is 96.7%.

For `C[C@@H]1C[C@H]2CC[C@H](O2)[C@H](C)C(=O)O[C@@H](C)C[C@@H]2CC[C@@H](O2)[C@@H](C)C(=O)O[C@H](C)C[C@H]2CC[C@H](O2)[C@H](C)C(=O)O[C@@H](C)C[C@@H]2CC[C@@H](O2)[C@@H](C)C(=O)O1` [Nonactin], the remaining activity at 1.25 µM in experiment [1] (Well no.=3330, low concentration screen) turned out to be 95.5%. Further, the remaining activity at 3.75 µM in experiment [2] (Well no.=3330, high concentration screen) was determined as 94.1%.

As for `CCCCCCCCCCCCCCCCCCC(=O)O` [Nonadecanoic acid], the remaining activity at 1.25 µM in experiment [1] (Well no.=4362, low concentration screen) stood at 100%. Besides, the remaining activity at 3.75 µM in experiment [2] (Well no.=4362, high concentration screen) amounted to 95.6%.

As for `CCOC(=O)CNC(=O)[C@@H]1CCCN1C(=O)Cc1ccccc1` [Noopept] (PhAc-Pro-Gly-OEt), the remaining activity at 1.25 µM in experiment [1] (Well no.=5674, low concentration screen) came to 104%. The remaining activity at 3.75 µM in experiment [2] (Well no.=5674, high concentration screen) was 104%.

In the case of `O=C1OC(=O)[C@H]2[C@@H]1[C@@H]1CC[C@H]2O1` [Norcantharidin], the remaining activity at 1.25 µM in experiment [1] (Well no.=909, low concentration screen) is 100%. The remaining activity at 3.75 µM in experiment [2] (Well no.=909, high concentration screen) came out at 97.7%.

In the case of `c1ccc2c3c([nH]c2c1)CNCC3` [Noreleagnine], the remaining activity at 1.25 µM in experiment [1] (Well no.=3260, low concentration screen) was determined as 101%. Also, the remaining activity at 3.75 µM in experiment [2] (Well no.=3260, high concentration screen) came to 101%.

As for `NC[C@H](O)c1ccc(O)c(O)c1` [Norepinephrine (bitartrate monohydrate)], in experiment [1] (Well no.=6517, low concentration screen), the remaining activity at 1.25 µM came out at 101%. In experiment [2] (Well no.=6517, high concentration screen), the remaining activity at 3.75 µM worked out at 98.7%.

Regarding `NC[C@H](O)c1ccc(O)c(O)c1` [Norepinephrine], in experiment [1] (Well no.=7015, low concentration screen), the remaining activity at 1.25 µM was 106%. Also, in experiment [2] (Well no.=7015, high concentration screen), the remaining activity at 3.75 µM came out at 103%.

As for `C#C[C@]1(OC(C)=O)CC[C@H]2[C@@H]3CCC4=CC(=O)CC[C@@H]4[C@H]3CC[C@@]21C` [Norethindrone acetate], in experiment [1] (Well no.=5895, low concentration screen), the remaining activity at 1.25 µM turned out to be 99.8%. In addition, the remaining activity at 3.75 µM in experiment [2] (Well no.=5895, high concentration screen) is 101%.

As to `C#C[C@]1(O)CC[C@H]2[C@@H]3CCC4=CC(=O)CC[C@@H]4[C@H]3CC[C@@]21C` [Norethindrone], the remaining activity at 1.25 µM in experiment [1] (Well no.=2013, low concentration screen) came to 96.6%. The remaining activity at 3.75 µM in experiment [2] (Well no.=2013, high concentration screen) amounted to 96.6%.

For `CCn1cc(C(=O)O)c(=O)c2cc(F)c(N3CCNCC3)cc21` [Norfloxacin], the remaining activity at 1.25 µM in experiment [1] (Well no.=2043, low concentration screen) amounted to 109%. Moreover, the remaining activity at 3.75 µM in experiment [2] (Well no.=2043, high concentration screen) turned out to be 105%.

On to `C/C=C1/CN2CC[C@]34C(=C(C=O)[C@H]1C[C@H]23)Nc1ccccc14` [Norfluorocurarine], for which, in experiment [1] (Well no.=3165, low concentration screen), the remaining activity at 1.25 µM was 95.2%. In addition, the remaining activity at 3.75 µM in experiment [2] (Well no.=3165, high concentration screen) was found to be 97.4%.
